Results on 2 molecules are retold here after BindingDB's records for PubMed 20126400 (University of Oklahoma, 2010).

Assay [1] deals with 5-hydroxytryptamine receptor 2A (Rattus norvegicus, UniProt P14842). The assay can be described thus: Ray2010 Assay 25. The text has this: ketanserin cloned PDSP web; .
Assay [2] addresses T1, 5-hydroxytryptamine receptor 1A (Homo sapiens, UniProt P08908).
T1 sequence (P08908 whole entry): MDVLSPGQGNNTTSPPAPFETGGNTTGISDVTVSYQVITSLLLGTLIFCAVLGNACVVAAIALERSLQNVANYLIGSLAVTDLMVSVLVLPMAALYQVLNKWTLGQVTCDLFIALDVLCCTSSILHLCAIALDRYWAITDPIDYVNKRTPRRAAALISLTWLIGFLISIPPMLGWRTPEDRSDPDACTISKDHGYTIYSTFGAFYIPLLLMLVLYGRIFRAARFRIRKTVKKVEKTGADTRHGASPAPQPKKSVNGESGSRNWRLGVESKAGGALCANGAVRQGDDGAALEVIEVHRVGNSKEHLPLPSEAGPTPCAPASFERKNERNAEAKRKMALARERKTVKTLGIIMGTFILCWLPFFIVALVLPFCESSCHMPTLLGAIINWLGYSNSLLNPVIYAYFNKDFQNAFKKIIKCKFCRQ
The assay can be described thus: Ray2010 Assay 28. The text has this: 8-oh-dpat cloned PDSP web; .

The target of assay [3] is 5-hydroxytryptamine receptor 1D (UniProt F1MMU1). The assay can be described thus: Ray2010 Assay 30. The text has this:
5-HT caudate .

For another assay, the target named is D(2) dopamine receptor (Homo sapiens, UniProt P14416). In words: Ray2010 Assay 32. From the text: YM 09191-2 cloned PDSP web; .
Another assay has as its target D(3) dopamine receptor (Bos taurus, UniProt F1N454). The assay can be described thus: Ray2010 Assay 33. From the text: 7-OH-DPAT caudate .
The target in a further assay is T2, D(4) dopamine receptor (Homo sapiens, UniProt P21917).
T2 sequence (P21917 whole entry): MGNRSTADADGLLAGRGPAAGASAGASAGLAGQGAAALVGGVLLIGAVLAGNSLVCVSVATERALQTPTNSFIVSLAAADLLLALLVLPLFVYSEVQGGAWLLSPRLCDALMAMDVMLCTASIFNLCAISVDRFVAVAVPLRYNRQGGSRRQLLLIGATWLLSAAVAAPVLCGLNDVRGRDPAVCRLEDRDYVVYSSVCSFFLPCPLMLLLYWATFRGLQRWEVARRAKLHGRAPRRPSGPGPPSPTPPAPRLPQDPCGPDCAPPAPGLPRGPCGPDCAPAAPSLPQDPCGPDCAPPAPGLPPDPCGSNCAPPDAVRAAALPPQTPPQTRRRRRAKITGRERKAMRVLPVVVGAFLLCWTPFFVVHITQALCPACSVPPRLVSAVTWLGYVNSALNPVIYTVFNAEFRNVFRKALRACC
The assay can be described thus: Ray2010 Assay 34. The text has this:
spiperone cloned .

Assay [4] concerns the target Beta-1 adrenergic receptor (Rattus norvegicus, UniProt P18090). The assay can be described thus: Ray2010 Assay 35. From the text:
dihydro-alprenalol HCL cortex .

Assay [5] has as its target Sigma non-opioid intracellular receptor 1 (Cavia porcellus, UniProt Q60492). In words: Ray2010 Assay 39. From the text: (+)-pentazocine brain Mach et al.1995.
Assay [6] deals with Sigma non-opioid intracellular receptor 1 (UniProt Q58DH7). The assay can be described thus: Ray2010 Assay 40. The text has this:
(+)-pentazocine caudate .

Assay [7] concerns the target Sigma intracellular receptor 2 (Rattus norvegicus, UniProt Q5U3Y7). In words: Ray2010 Assay 42.
Excerpt: DTG liver .

For assay [8], the target named is Muscarinic acetylcholine receptor M1 (Rattus norvegicus, UniProt P08482). In words: Ray2010 Assay 47. The text has this: pirenzepine forebrain .
For assay [9], the target named is T3, Muscarinic acetylcholine receptor M2 (Rattus norvegicus, UniProt P10980). In words: Ray2010 Assay 48. The text has this: (§1) N-methylacoblamine forebrain .
For assay [10], the target named is Muscarinic acetylcholine receptor M3 (Rattus norvegicus, UniProt P08483). In words: Ray2010 Assay 48.
Excerpt: as §1

For assay [11], the target named is T3, Muscarinic acetylcholine receptor M2. The assay can be described thus: Ray2010 Assay 50. The text has this: AF-DX384 forebrain .
The target in assay [12] is T4, Glutamate receptor ionotropic, NMDA 2D (Rattus norvegicus, UniProt Q62645). In words: Ray2010 Assay 62. From the text:
MK-801 hippocampus .

Assay [13] concerns the target T4, Glutamate receptor ionotropic, NMDA 2D. The assay can be described thus: Ray2010 Assay 64. The text has this: MK-801 Thalamus + hypothalamus .
Assay [14] shares this target. In words: Ray2010 Assay 65. From the text: MK-801 spinal cord .
For assay [15] the target is unchanged. The assay can be described thus: Ray2010 Assay 66. From the text: MK-801 midbrain .
For assay [16] the target is unchanged. The assay can be described thus: Ray2010 Assay 67. From the text:
MK-801 cerebellum .

The target is the same in assay [17]. The assay can be described thus: Ray2010 Assay 68. The text has this: MK-801 basal forebrain .
Assay [18] has the same target. The assay can be described thus: Ray2010 Assay 69. From the text: dizocilpine forebrain .
Assay [19] has as its target Gamma-aminobutyric acid receptor subunit alpha-1 (Bos taurus, UniProt P08219). The assay can be described thus: Ray2010 Assay 70. The text has this: muscimol cortex .
In assay [20] the target is Alpha-2B adrenergic receptor (Homo sapiens, UniProt P18089). In words: Ray2010 Assay 74. The text has this:
(§2) Table S2 shows raw Ki data for the current study combined with data collected from the literature for the ten additional compounds.

Assay [21] concerns the target Neuronal acetylcholine receptor subunit alpha-2/beta-4 (Homo sapiens, UniProt Q15822+P30926). The assay can be described thus: Ray2010 Assay 74.
Excerpt: as §2

In assay [22] the target is Neuronal acetylcholine receptor subunit alpha-4/beta-2 (Homo sapiens, UniProt P43681+P17787). The assay can be described thus: Ray2010 Assay 74.
Excerpt: as §2

Assay [23] deals with Neuronal acetylcholine receptor subunit alpha-4/beta-4 (Homo sapiens, UniProt P43681+P30926). In words: Ray2010 Assay 74.
Excerpt: as §2

Where only a bound is given, the exact number is not on record here.

T4 sequence (Q62645 whole entry): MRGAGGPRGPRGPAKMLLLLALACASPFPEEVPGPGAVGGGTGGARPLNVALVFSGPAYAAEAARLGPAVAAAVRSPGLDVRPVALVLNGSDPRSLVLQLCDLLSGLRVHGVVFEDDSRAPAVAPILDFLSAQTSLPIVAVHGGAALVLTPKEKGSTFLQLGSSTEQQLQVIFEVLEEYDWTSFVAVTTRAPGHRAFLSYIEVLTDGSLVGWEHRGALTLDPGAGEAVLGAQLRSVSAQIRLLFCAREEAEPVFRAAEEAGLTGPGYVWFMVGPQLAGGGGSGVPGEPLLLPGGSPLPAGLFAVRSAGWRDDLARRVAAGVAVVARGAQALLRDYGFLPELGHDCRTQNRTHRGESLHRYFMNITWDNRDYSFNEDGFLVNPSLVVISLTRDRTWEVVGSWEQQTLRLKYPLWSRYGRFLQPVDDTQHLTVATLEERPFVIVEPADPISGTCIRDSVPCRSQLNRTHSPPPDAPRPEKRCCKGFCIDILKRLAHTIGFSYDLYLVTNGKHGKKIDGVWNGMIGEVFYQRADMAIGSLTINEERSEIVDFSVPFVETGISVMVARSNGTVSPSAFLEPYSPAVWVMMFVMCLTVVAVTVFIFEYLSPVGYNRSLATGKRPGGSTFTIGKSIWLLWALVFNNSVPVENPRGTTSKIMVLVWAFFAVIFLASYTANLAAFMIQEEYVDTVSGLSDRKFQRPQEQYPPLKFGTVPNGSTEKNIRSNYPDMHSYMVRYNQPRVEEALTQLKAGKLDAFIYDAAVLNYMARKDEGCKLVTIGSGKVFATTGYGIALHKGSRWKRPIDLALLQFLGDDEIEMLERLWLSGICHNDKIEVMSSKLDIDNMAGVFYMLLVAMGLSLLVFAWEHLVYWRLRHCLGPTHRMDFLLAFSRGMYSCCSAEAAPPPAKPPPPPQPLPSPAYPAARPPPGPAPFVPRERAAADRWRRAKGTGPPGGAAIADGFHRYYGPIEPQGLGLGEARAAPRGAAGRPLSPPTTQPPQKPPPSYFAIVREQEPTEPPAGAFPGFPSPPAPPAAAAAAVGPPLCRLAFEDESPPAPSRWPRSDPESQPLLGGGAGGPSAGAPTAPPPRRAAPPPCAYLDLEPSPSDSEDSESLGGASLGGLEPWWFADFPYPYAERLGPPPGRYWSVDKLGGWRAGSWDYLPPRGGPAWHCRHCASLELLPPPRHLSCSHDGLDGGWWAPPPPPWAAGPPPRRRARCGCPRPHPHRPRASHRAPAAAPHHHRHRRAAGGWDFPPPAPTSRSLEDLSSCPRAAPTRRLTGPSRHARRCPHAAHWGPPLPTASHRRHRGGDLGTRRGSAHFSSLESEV
T3 sequence (P10980 whole entry): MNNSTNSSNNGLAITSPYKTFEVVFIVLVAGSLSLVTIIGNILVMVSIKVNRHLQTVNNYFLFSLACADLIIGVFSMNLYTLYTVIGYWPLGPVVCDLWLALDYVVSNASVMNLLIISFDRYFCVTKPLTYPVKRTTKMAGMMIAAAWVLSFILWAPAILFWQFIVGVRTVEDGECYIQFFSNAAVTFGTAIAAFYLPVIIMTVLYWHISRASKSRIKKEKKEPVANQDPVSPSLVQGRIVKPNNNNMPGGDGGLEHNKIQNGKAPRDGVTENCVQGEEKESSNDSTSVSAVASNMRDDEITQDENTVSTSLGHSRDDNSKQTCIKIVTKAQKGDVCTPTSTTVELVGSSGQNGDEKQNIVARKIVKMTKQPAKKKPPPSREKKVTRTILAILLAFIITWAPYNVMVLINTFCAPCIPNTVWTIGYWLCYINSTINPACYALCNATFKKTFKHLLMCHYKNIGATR
Sequence of Neuronal acetylcholine receptor subunit alpha-2/beta-4 (Q15822 whole entry): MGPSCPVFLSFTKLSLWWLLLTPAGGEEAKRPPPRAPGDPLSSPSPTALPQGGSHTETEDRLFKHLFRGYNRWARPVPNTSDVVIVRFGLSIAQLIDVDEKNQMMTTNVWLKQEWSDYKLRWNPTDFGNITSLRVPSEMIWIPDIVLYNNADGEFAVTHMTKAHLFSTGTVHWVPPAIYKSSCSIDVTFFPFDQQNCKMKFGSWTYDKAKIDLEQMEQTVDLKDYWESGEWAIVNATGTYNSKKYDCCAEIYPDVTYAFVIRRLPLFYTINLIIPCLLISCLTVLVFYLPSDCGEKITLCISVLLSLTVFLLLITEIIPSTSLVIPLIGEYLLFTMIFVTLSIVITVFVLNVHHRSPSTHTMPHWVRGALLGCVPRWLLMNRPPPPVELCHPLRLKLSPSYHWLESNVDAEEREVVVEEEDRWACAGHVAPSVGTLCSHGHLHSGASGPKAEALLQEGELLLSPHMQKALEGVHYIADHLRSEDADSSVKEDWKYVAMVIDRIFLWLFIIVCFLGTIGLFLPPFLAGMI
Sequence of Neuronal acetylcholine receptor subunit alpha-2/beta-4 (P30926 whole entry): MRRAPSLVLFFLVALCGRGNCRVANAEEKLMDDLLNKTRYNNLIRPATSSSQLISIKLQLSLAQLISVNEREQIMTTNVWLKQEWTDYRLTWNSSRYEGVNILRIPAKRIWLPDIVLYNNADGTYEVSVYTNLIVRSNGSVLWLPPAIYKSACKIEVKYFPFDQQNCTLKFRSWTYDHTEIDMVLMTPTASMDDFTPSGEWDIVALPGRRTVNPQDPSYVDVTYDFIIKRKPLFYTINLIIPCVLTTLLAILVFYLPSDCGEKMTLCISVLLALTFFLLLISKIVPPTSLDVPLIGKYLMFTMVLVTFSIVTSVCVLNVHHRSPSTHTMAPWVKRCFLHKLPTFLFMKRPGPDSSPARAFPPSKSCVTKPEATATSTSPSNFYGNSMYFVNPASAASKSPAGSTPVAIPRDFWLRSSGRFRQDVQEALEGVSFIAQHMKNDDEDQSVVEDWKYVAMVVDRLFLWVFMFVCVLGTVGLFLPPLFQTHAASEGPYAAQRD
Sequence of D(3) dopamine receptor (F1N454 whole entry): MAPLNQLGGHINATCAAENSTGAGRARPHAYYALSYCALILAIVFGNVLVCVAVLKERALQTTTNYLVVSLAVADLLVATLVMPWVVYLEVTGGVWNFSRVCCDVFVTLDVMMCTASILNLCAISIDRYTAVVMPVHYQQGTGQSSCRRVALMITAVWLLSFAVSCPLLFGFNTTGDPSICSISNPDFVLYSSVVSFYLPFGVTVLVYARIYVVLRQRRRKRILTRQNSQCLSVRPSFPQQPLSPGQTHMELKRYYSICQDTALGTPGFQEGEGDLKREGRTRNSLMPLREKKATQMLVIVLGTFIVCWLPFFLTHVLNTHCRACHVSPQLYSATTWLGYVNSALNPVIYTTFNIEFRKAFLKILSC
Sequence of Alpha-2B adrenergic receptor (P18089 whole entry): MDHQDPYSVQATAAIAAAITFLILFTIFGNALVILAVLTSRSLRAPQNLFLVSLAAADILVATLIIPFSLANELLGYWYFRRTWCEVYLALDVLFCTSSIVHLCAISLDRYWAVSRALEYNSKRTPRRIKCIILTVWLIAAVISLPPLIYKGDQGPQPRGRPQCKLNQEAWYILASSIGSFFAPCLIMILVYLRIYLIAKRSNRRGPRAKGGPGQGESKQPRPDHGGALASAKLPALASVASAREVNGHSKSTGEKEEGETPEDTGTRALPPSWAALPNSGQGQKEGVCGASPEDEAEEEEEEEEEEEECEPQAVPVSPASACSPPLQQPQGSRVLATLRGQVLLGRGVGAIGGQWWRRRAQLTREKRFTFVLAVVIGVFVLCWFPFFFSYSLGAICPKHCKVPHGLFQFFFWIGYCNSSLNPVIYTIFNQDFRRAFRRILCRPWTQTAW
Sequence of Sigma non-opioid intracellular receptor 1 (UniProt Q58DH7) (Q58DH7 whole entry): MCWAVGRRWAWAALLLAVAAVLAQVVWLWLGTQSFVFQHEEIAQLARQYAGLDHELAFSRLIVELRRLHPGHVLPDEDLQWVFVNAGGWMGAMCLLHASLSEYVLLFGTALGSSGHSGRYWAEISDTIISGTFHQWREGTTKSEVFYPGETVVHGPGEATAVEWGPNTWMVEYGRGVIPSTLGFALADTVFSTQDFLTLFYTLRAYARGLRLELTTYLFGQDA
Sequence of Gamma-aminobutyric acid receptor subunit alpha-1 (P08219 whole entry): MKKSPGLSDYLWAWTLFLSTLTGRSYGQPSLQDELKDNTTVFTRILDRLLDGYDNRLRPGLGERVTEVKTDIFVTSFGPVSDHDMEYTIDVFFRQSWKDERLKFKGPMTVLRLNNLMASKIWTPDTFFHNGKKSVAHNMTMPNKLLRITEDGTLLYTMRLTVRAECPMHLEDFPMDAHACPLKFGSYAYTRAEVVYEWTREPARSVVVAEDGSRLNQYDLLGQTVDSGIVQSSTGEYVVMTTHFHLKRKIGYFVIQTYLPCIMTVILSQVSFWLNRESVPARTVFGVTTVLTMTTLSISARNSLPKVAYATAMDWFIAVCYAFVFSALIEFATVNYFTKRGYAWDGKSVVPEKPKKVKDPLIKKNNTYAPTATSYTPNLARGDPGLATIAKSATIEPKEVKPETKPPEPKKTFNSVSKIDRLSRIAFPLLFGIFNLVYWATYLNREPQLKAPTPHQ
Sequence of Neuronal acetylcholine receptor subunit alpha-4/beta-4 (P43681 whole entry): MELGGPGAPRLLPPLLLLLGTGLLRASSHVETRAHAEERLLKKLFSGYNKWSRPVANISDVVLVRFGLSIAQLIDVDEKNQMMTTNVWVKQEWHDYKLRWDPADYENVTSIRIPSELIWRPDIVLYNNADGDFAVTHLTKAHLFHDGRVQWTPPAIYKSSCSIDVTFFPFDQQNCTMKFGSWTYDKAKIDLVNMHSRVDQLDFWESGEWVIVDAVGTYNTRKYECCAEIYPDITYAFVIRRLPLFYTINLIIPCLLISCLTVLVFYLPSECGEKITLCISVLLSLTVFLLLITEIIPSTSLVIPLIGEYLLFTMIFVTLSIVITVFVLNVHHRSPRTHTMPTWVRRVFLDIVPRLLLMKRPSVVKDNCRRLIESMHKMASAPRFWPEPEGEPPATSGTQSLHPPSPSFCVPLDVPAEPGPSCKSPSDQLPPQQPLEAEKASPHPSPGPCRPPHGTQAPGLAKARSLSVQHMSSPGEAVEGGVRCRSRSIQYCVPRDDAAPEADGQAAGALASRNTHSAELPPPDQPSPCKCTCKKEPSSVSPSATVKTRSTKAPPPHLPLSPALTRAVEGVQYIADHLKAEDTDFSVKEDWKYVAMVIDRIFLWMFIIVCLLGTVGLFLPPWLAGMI
Sequence of Neuronal acetylcholine receptor subunit alpha-4/beta-4 (P30926 whole entry): as the sequence (P30926 whole entry) above

As for `CC[C@H]1C[C@@H]2C[C@H]3c4[nH]c5ccc(OC)cc5c4CCN(C2)[C@@H]13`, the Ki in [1] is over 10 µM; in assay [2], over 10 µM; in [3], over 100 µM; at D(2) dopamine receptor, over 10 µM; at D(3) dopamine receptor, 70 µM; in assay [4], over 100 µM. Moreover, the Ki in assay [5] was determined as 9.31 µM; in assay [6], 2500 nM; in assay [7], 90.4 nM; in assay [9] it was 50.1 µM; in assay [10], 12.5 µM; in [12], 1190 nM. The Ki in assay [13] is 1980 nM; in [14], 2220 nM; in assay [15], 2460 nM; in assay [16], 3.31 µM; in assay [17], 3.9 µM; in assay [19] it was over 100 µM. In addition, the IC50 was over 100 µM at D(4) dopamine receptor, 7.6 µM in assay [8], 5.9 µM in [11] and 3.2 µM in assay [18].

Take “CAS_82830-44-2::(2R)-1-(4-iodo-2,5-dimethoxyphenyl)propan-2-amine::DOI,(-)::US20250270173, Compound DOI”: the Ki in assay [20] was 340 nM; in assay [21] it was over 10 µM; in assay [22] it was over 10 µM; in assay [23] it was over 10 µM.

In general, Ki refers to the dissociation constant of the complex between target and ligand, obtained from inhibition or displacement. A lower Ki goes with tighter binding. One may read the IC50 as the concentration needed to halve the response being measured. A low value points to greater potency.
